Here are results for 3 molecules from US20260217761A1, “ANTIMICROBIAL PEPTIDE RICH IN TRYPTOPHAN AND HAVING SELF-ASSEMBLY PROPERTIES, AND USE THEREOF” (NANOQURE BIOTECH (SHENZHEN) CO., LTD., priority 2022, published 2026).

≈ marks a conversion by molar mass, not a printed value. Where “and” joins values, the source holds several entries; their conditions need not be identical. Equal entries are not always repeated. Where two headings read alike, the source gives them in different places. Residues, ends and D or L forms follow the SMILES beside them. No end group written: not given here. Where only a bound is given, the exact number is not on record here.

The subject of data set [1] is mixed bacterial solution of Pseudomonas aeruginosa and Staphylococcus aureus. The format is cell-based, Pseudomonas aeruginosa PAO1 and Staphylococcus aureus SP1. How it is done:
• A. The antimicrobial peptide was prepared into a certain stock solution for use. 0.01% acetic acid (containing 0.2% BSA) was used as the diluent, and a series of gradient antimicrobial peptide solutions were prepared sequentially by a two-fold dilution method. • B. 100 μL of the above-mentioned antimicrobial peptide stock solution was taken and placed in a 96-well cell culture plate. Then, an equal volume of the test bacterial solution (approximately 10^5 cells/mL) was added to each well. A positive control (containing the bacterial solution but no antimicrobial peptide) and a negative control (containing neither bacterial solution nor the peptide) were included, respectively. […] The culture plate was placed in a constant temperature incubator at 37° C. for 20 h. The minimum inhibitory concentration is determined as the condition where no turbidity is observed at the bottom of the well with naked eyes.

The next data set deals with various bacteria. Briefly: MIC against various bacteria (broad-spectrum antimicrobial activity). The format is cell-based. As for the experimental part: • A. The antimicrobial peptide was prepared into a certain stock solution for use. 0.01% acetic acid (containing 0.2% BSA) was used as the diluent, and a series of gradient antimicrobial peptide solutions were prepared sequentially by a two-fold dilution method. • B. 100 μL of the above-mentioned antimicrobial peptide stock solution was taken and placed in a 96-well cell culture plate. Then, an equal volume of the test bacterial solution (approximately 10^5 cells/mL) was added to each well. A positive control (containing the bacterial solution but no antimicrobial peptide) and a negative control (containing neither bacterial solution nor the peptide) were included, respectively. The test bacterial species include Pseudomonas aeruginosa (Pseudomonas aeruginosa PL1, Pseudomonas aeruginosa SP1), Staphylococcus aureus (Staphylococcus aureus 544, Staphylococcus aureus 103), Escherichia coli (Escherichia coli 729, Escherichia coli 112), Klebsiella Pneumoniae (Klebsiella Pneumoniae 106, Klebsiella Pneumoniae 727), Streptococcus pneumonia 383, Acinetobacter baumannii (Acinetobacter baumannii 946, Acinetobacter baumannii 780) (FIG. 1), or Pseudomonas aeruginosa (Pseudomonas aeruginosa PAO1), Staphylococcus aureus (Staphylococcus aureus SP1), and a mixed solution of the above two bacteria (FIG. 2). • C. The culture plate was placed in a constant temperature incubator at 37° C. for 20 h. The minimum inhibitory concentration is determined as the condition where no turbidity is observed at the bottom of the well with naked eyes.
• A. The polypeptide Z4 composed entirely of dextrorotatory amino acids is called the dextrorotatory isomer of polypeptide Z4. The polypeptide Z4-D was prepared into a certain stock solution for use. […] The minimum inhibitory concentration is determined as the condition where no turbidity is observed at the bottom of the well with naked eyes.

Data set [2] can be described thus: Self-assembly observed by scanning electron microscopy (SEM). The following applies: in phosphate-buffered saline (PBS) (pH=7.2). Format: physicochemical. As for the experimental part:
Without being bound by any theory, it is deduced that the reason why WW++W++WW has better self-assembly activity and MIC than +++WWW+++ is based on the WW at both ends of the peptide, rather than the number of positively charged amino acids (K and/or R). • B. Observation of polypeptide Z4 by scanning electron microscopy (SEM): To prepare SEM samples for observing the self-assembly of the polypeptide, 10 μL of the polypeptide was placed on tin foil that had been ultrasonically treated for 30 min.
After drying, the samples were sputter-coated with gold. All samples were observed using Gimini SEM 500.

The next data set relates to P. aeruginosa. Kind of data set: Killing curve (bactericidal activity) against P. aeruginosa. Format: cell-based, Pseudomonas aeruginosa. How it is done: (§1) • A. To determine the bactericidal ability of polypeptide Z4, Pseudomonas aeruginosa and Staphylococcus aureus were suspended in PBS until OD600 nm=0.4, then diluted 1000 times with fresh PBS and mixed in equal volumes. Polypeptide Z4 was added to the bacterial suspension at concentrations of 1×MIC and 2×MIC. […] After incubation at 37° C. for 18 h, the single colonies of the microorganisms were counted. The experiment was repeated 3 times and the average value was calculated.

The test system of another data set is S. aureus. Briefly: Killing curve (bactericidal activity) against S. aureus. The format is cell-based, Staphylococcus aureus. How it is done:
as §1

The subject of data set [3] is mixed biofilm of P. aeruginosa and S. aureus. Kind of data set: Anti-biofilm activity on formed mixed biofilm (crystal violet). Format: cell-based. The following applies: for removal effect on the formed biofilm: 3 h. How it is done: • B. To investigate the anti-biofilm activity of polypeptide Z4, P. aeruginosa and S. aureus were grown overnight at 37° C. in tryptic soy broth medium until the logarithmic phase, and then diluted to 1×10^7 CFU/mL and 1×10^6 CFU/mL respectively, and mixed in equal amounts to prepare a mixed bacterial culture. Subsequently, 100 μL of the mixed bacterial suspension was incubated at 37° C. for 24 h to obtain a mixed biofilm. Then, antimicrobial peptides with a final concentration of 2-32 μM were added to a 96-well plate. After incubation at 37° C. for 3 h, the medium was discarded, and the 96-well plate was washed three times with PBS (pH=7.2). After drying at room temperature, 200 μL/well of […] crystal violet staining solution was added to the plate. After incubation at 37° C. for 30 minutes, it was rinsed three times with PBS. After air drying at room temperature, 200 μL/well of 95% ethanol was added and incubated at 37° C. for 30 min, and the absorbance was measured at 595 nm. A total of 3 experiments were set up, and each experiment was repeated 3 times.

Data set [4] relates to P. aeruginosa in the catheter biofilm. Kind of data set: In vivo bactericidal activity in the catheter biofilm, P. aeruginosa. The following applies: mice, versus PBS control.
Data set [5] has as its system S. aureus in the catheter biofilm. Briefly: In vivo bactericidal activity in the catheter biofilm, S. aureus. The following applies: mice, versus PBS control.
Another data set relates to IL-6. Briefly: IL-6 content in the skin tissue at the infected site. The format is in vivo. The following applies: mice.
A further data set has as its system inflammatory cells. Kind of data set: Inflammatory cells in sections of skin tissue at the infected site. Format: in vivo. The following applies: mice, versus PBS control.
Data set [6] deals with mixed bacterial solution of P. aeruginosa PAO1 and S. aureus SP1. The format is cell-based. How it is done: After ultrasonic treatment of polypeptide Z4 and polypeptide Z4-D for 30 min, they were placed at room temperature for 2 h to promote their self-assembly. Subsequently, proteinase K with a final concentration of 0.2 g/mL was mixed with the polypeptide solution (final concentration of 640 μM) and incubated at 37° C. for 0, 30, 60, 90 or 120 min respectively. Then, according to the scheme described in Example 2, the MICs of the polypeptides against the mixed bacterial solution of P. aeruginosa PAO1 and S. aureus SP1 under different treatment conditions were determined.

As to `NCCCC[C@H](NC(=O)[C@H](CCCCN)NC(=O)[C@H](Cc1c[nH]c2ccccc12)NC(=O)[C@H](CCCCN)NC(=O)[C@H](CCCCN)NC(=O)[C@H](Cc1c[nH]c2ccccc12)NC(=O)[C@@H](N)Cc1c[nH]c2ccccc12)C(=O)N[C@@H](Cc1c[nH]c2ccccc12)C(=O)N[C@@H](Cc1c[nH]c2ccccc12)C(N)=O` [Z4, WWKKWKKWW-NH2] (H-WWKKWKKWW-NH2; N-terminus assumed), the “minimum inhibitory concentration (MIC)” value in [1] came to 4 µM (≈ 5.84 µg/mL); in [1] (mixed bacterial solution of Pseudomonas aeruginosa and Staphylococcus aureus), 4 µM (≈ 5.84 µg/mL). In addition, the broad-spectrum antimicrobial activity entry in the data set with various bacteria was “good broad-spectrum antimicrobial activity”. For the same molecule, the “average particle size of self-assembled nanomicelle” value in data set [2] was determined as 174.62 nanometers. In addition, the “time within which all P. aeruginosa were killed” value in the data set on P. aeruginosa (1×MIC (4 μM)) is no more than 60 min; in the data set with P. aeruginosa (2×MIC (8 μM)), no more than 30 min. For the same molecule, the “survival number of P. aeruginosa” value in the data set with P. aeruginosa (1×MIC, 0 min) was 134000 CFU/mL and 112000 CFU/mL and 104000 CFU/mL; in the data set on P. aeruginosa (1×MIC, 60 min), 0 CFU/mL; in the data set with P. aeruginosa (1×MIC, 120 min), 0 CFU/mL; with P. aeruginosa (1×MIC, 180 min), 0 CFU/mL; in the data set on P. aeruginosa (1×MIC, 240 min), 0 CFU/mL; in the data set on P. aeruginosa (1×MIC, 300 min) it was 0 CFU/mL. The “survival number of P. aeruginosa” value with P. aeruginosa (2×MIC, 0 min) is 186000 CFU/mL and 136000 CFU/mL and 132000 CFU/mL; with P. aeruginosa (2×MIC, 30 min), 0 CFU/mL; in the data set on P. aeruginosa (2×MIC, 60 min), 0 CFU/mL; in the data set on P. aeruginosa (2×MIC, 120 min), 0 CFU/mL; in the data set on P. aeruginosa (2×MIC, 180 min), 0 CFU/mL; in the data set with P. aeruginosa (2×MIC, 240 min) it was 0 CFU/mL. Further, the “bactericidal rate against P. aeruginosa compared with gentamicin” value in the data set on P. aeruginosa (compared with gentamicin) was “faster bactericidal rate”. Moreover, the “time within which all S. aureus were killed” value with S. aureus (1×MIC (4 μM)) and in the data set with S. aureus (2×MIC (8 μM)) was no more than 360 min in each case. Further, the “survival number of S. aureus” value in the data set on S. aureus (1×MIC, 300 min) was 2000 CFU/mL; with S. aureus (1×MIC, 360 min), 0 CFU/mL; with S. aureus (2×MIC, 360 min), 0 CFU/mL. Moreover, in the data set with S. aureus (compared with gentamicin), the “bactericidal rate against S. aureus compared with gentamicin” value is on record as “no significant difference in the bactericidal rate”. The “removal effect on the formed biofilm” value was 32.16% and 56.39% and 56.88% in [3] (concentration 4 μM); 28.16% and 29.51% and 42.64% in data set [3] (concentration 8 μM). The anti-biofilm activity result in data set [3] (mixed biofilm) was “good and direct anti-biofilm activity”. Further, in data set [3] (mixed biofilm), the “concentration at which more than 50% of biofilm is removed” value is on record as 8 μm. The “concentration at which more than 50% of the biofilm is removed” value in [3] (mixed biofilm) was determined as 8 µM. The “number of Pseudomonas aeruginosa colonized in the catheter” value in data set [4] was “significantly reduced”. Besides, the “number of Staphylococcus aureus colonized in the catheter” value in [5] is reported as “significantly reduced”. Further, the “IL-6 content in the skin tissue at the infected site” value in the data set with IL-6 (Biofilm + Z4) was 110.6228 pg/g and 89.73 pg/g and 91.09 pg/g and 95.94 pg/g and 137.9124 pg/g and 127.2606 pg/g and 88.31 pg/g and 94.64 pg/g. Also, the “level of IL-6 in the skin tissue” value in the data set with IL-6 (versus PBS control) is “reduced”. For the same molecule, the “number of infiltrated inflammatory cells” value with inflammatory cells was “reduced”. Further, the “MIC after proteinase K treatment” value in data set [6] (2 h) turned out to be 8 µM (≈ 11.7 µg/mL). The “decrease of antimicrobial activity due to hydrolysis by proteinase K” value in data set [6] (proteinase K treatment, 90 minutes) amounted to 50%. Moreover, the “MIC before increase under proteinase K treatment” value in data set [6] (proteinase K treatment, before 90 minutes) is 4 µM (≈ 5.84 µg/mL).
For the molecule Gentamicin, the “survival number of P. aeruginosa” value is 140000 CFU/mL and 126000 CFU/mL and 130000 CFU/mL and 122000 CFU/mL in the data set with P. aeruginosa (1×MIC, 0 min); 116000 CFU/mL and 120000 CFU/mL and 140000 CFU/mL and 108000 CFU/mL in the data set on P. aeruginosa (1×MIC, 15 min); 104000 CFU/mL and 126000 CFU/mL and 110000 CFU/mL with P. aeruginosa (1×MIC, 30 min); 112000 CFU/mL and 92000 CFU/mL and 106000 CFU/mL and 110000 CFU/mL in the data set on P. aeruginosa (1×MIC, 60 min); 30000 CFU/mL and 52000 CFU/mL and 54000 CFU/mL with P. aeruginosa (1×MIC, 120 min); 0 CFU/mL with P. aeruginosa (1×MIC, 300 min). The “survival number of P. aeruginosa” value is 142000 CFU/mL and 134000 CFU/mL and 122000 CFU/mL and 106000 CFU/mL with P. aeruginosa (2×MIC, 0 min); 166000 CFU/mL and 104000 CFU/mL and 136000 CFU/mL and 128000 CFU/mL in the data set on P. aeruginosa (2×MIC, 15 min); 116000 CFU/mL and 154000 CFU/mL and 126000 CFU/mL and 130000 CFU/mL in the data set on P. aeruginosa (2×MIC, 30 min); 92000 CFU/mL and 82000 CFU/mL and 70000 CFU/mL and 68000 CFU/mL in the data set on P. aeruginosa (2×MIC, 60 min); 0 CFU/mL with P. aeruginosa (2×MIC, 240 min). The “survival number of S. aureus” value is 2000 CFU/mL and 4000 CFU/mL with S. aureus (1×MIC, 30 min); 2000 CFU/mL and 4000 CFU/mL with S. aureus (1×MIC, 180 min); 0 CFU/mL in the data set with S. aureus (1×MIC, 360 min); 0 CFU/mL in the data set with S. aureus (2×MIC, 300 min); 0 CFU/mL with S. aureus (2×MIC, 360 min). The “removal effect on the formed biofilm” value is 90.78% and 99.18% and 100% in data set [3] (concentration 2 μM); 67.84% and 74.15% and 105.2663% in data set [3] (concentration 4 μM); 86.98% and 97.37% and 78.85% in data set [3] (concentration 8 μM); 64.53% and 107.33% and 74.22% in data set [3] (concentration 16 μM). In [3] (mixed biofilm), the “concentration at which more than 50% of the biofilm is removed” value came out at 32 µM.
For “KWKWWWKWK-NH2 [Z1, centrally symmetric 9-peptide of tryptophan and lysine]”, the broad-spectrum antimicrobial activity result in the data set with various bacteria is “good broad-spectrum antimicrobial activity”.
